The results in this text go back to patent US20150148256A1, “BIOLUMINESCENCE IMAGING-BASED SCREENING ASSAY AND INHIBITORS OF ABCG2” (THE JOHNS HOPKINS UNIVERSITY, priority 2008, published 2015).

Counter-ions that a name gives are not always drawn. Like-named read-outs stand apart in the source and are kept apart here. Residues, ends and D or L forms follow the SMILES beside them.

The target in the data set is T1, ABCG2 (Homo sapiens, UniProt Q9UNQ0).
T1 sequence (Q9UNQ0 1-655): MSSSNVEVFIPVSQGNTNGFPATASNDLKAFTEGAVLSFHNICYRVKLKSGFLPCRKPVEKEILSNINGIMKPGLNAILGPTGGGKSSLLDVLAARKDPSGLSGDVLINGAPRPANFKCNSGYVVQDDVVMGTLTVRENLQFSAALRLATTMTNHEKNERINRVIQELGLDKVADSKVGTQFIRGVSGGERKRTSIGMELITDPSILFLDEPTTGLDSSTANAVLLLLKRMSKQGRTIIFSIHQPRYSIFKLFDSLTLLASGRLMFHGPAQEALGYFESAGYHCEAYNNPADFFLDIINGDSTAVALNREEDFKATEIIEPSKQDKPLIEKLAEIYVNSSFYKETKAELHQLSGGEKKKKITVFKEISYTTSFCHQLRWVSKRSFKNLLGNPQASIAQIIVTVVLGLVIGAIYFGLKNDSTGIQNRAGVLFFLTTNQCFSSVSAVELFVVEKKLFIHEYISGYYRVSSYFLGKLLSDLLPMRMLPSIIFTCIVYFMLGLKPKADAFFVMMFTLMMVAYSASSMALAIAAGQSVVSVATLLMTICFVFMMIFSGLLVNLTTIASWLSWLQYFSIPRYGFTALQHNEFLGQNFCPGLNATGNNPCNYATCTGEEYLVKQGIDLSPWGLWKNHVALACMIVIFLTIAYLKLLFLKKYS
In words: Bioluminescence imaging (BLI) assay in HEK293/ABCG2/fLuc cells. The protocol: HEK293/ABCG2/fLuc cells were plated into 96-well plates at a density of 4×10^4 cells/100 μL per well and were allowed to attach overnight. The following day, 10 μL of each compound or the control solvent was transferred from a compound library in a 96-well, high-throughput format into the wells using a multichannel pipette. […] Images were taken every 5 minutes for ˜1 h. Light output from each well was quantified at the 40 min time point after initiation of imaging, and the signal-to-background (S/B) ratio of the light output from each compound divided by that from the control well was calculated. This S/B ratio serves as an indicator of the potency of ABCG2 inhibition, the mechanism by which BLI signal is enhanced.
Images were taken every 5 min for ˜1 h, and light output from each well at the 40 min time point was chosen for quantification. The SB ratio of the light output from each compound divided by that from the control well was calculated. This ratio was used as an indicator of the potency of ABCG2 inhibition, the mechanism by which BLI signal is enhanced.
The BLI signal-enhancing effect of selected ABCG2 inhibitors was evaluated within the range of 0.001 μM-100 μM, with HEK293/ABCG2/fLuc cells and 50 μg/mL D-luciferin. The data obtained at 40 min after imaging commencement were chosen arbitrarily to be plotted (FIG. 3).

Setting [1] is: Table 2, HEK293/ABCG2/fLuc cells, compound approximately 17 μM, ~50 μg/mL D-luciferin, 40 min time point.

`CCCn1c(=O)c2[nH]c(C3CCCC3)nc2n(CCC)c1=O` [1,3-dipropyl-8-cyclopentylxanthine]: where the note is “human, 40 min, 17 μM”, the “Fold (BLI enhancement, S/B ratio over control)” value worked out at 4.3 fold.
With `O=c1cc(-c2ccccc2)oc2cc(O)c(O)cc12` [6,7-dihydroxyflavone], under “human, 40 min, 17 μM”, the “Fold (BLI enhancement, S/B ratio over control)” value is 2.7 fold and the “fold (BLI enhancement), additional previously known ABCG2 inhibitors” value came out at 2.7 fold.
As to `Cn1c(=O)c2[nH]c(C3CCCC3)nc2n(C)c1=O` [8-cyclopentyltheophylline], the “Fold (BLI enhancement, S/B ratio over control)” value (human, 40 min, 17 μM) was determined as 2.9 fold.
As to `C[C@]12CC[C@@H]3c4ccc(O)cc4CC[C@H]3[C@@H]1CC[C@@H]2O` [13-estradiol], the “Fold (BLI enhancement, S/B ratio over control)” value under setting [1] was found to be 4.2 fold.
Take `COc1ccc(-c2cc(=O)c3c(O)cc(O)cc3o2)cc1` [acacetin]: the “BLI signal enhancement” value (BLI screen, approximately 17 μM, 40 min) worked out at 1.8 fold. Moreover, the “fold (BLI enhancement), additional previously known ABCG2 inhibitors” value (Table 5, approximately 17 μM, 40 min time point) is reported as 1.8 fold.
As to `CC[C@@]1(O)C[C@H](O[C@H]2C[C@H](N(C)C)[C@H](O[C@H]3C[C@H](O)[C@H](O[C@H]4CCC(=O)[C@H](C)O4)[C@H](C)O3)[C@H](C)O2)c2c(cc3c(c2O)C(=O)c2c(O)cccc2C3=O)[C@H]1C(=O)OC` [aclarubicin], under “human”, the “Fold (BLI enhancement, S/B ratio over control)” value was found to be 3.5 fold.
Same read-out and setting: the value for `CC[C@@]1(O)C[C@H](O[C@H]2C[C@H](N(C)C)[C@H](O)[C@H](C)O2)c2c(cc3c(c2O)C(=O)c2c(O)cccc2C3=O)[C@H]1C(=O)OC` [aklavine hydrochloride] was 2.5 fold.
On to `CCCCC(CC)CNC(=N)NC(=N)NCCCCCCNC(=N)NC(=N)NCC(CC)CCCC` (stereo not shown) [alexidine hydrochloride], for which, under “human, 40 min, 17 μM”, the “Fold (BLI enhancement, S/B ratio over control)” value is on record as 3.1 fold.
Still for that read-out and setting: in the case of `Nc1c2ccccc2nc2ccccc12` [aminacrine] it was 2.9 fold; in that of `CCN(CC)Cc1cc(Nc2ccnc3cc(Cl)ccc23)ccc1O` [amodiaquin], 3.8 fold.
On the same count and under the same terms, in the case of `COc1ccc(CCN2CCC(Nc3nc4ccccc4n3Cc3ccc(F)cc3)CC2)cc1` [astemizole] it was 2.8 fold; in that of `O=C1C(O)=C([C@H]2CC[C@H](c3ccc(Cl)cc3)CC2)C(=O)c2ccccc21` [atovaquone], 3.5 fold.
The same measure, in the same setting: in the case of `CN1CCCC(n2nc(Cc3ccc(Cl)cc3)c3ccccc3c2=O)CC1` (stereo not shown) [azelastine hydrochloride] it was 2.4 fold; in that of `CCC(=O)OCC(=O)[C@@]1(OC(=O)CC)[C@@H](C)C[C@H]2[C@@H]3CCC4=CC(=O)C=C[C@]4(C)[C@@]3(Cl)[C@@H](O)C[C@@]21C` [beclomethasone dipropionate], 3.2 fold.
Consider `CN1[C@@H]2CC[C@H]1C[C@@H](OC(c1ccccc1)c1ccccc1)C2.CS(=O)(=O)O` [benztropin Methane-], for which the “Fold (BLI enhancement, S/B ratio over control)” value under setting [1] was found to be 2.0 fold.
Still for that read-out and setting: the value for `COc1ccc2cc3[n+](cc2c1OC)CCc1cc2c(cc1-3)OCO2.O=S(=O)([O-])O` [berberine bisulfate] was 2.2 fold.
Consider `CCCCC(=O)O[C@]1(C(=O)CO)[C@@H](C)C[C@H]2[C@@H]3CCC4=CC(=O)C=C[C@]4(C)[C@@]3(F)[C@@H](O)C[C@@]21C` [betamethasone valerate], for which, for the setting “human, 40 min, 17 μM”, the “Fold (BLI enhancement, S/B ratio over control)” value worked out at 2.6 fold.
Take `Brc1c(NC2=NCCN2)ccc2nccnc12` [brimonidine]: for the setting “human, 40 min, 17 μM”, the “Fold (BLI enhancement, S/B ratio over control)” value was determined as 3.4 fold.
With `CC(C)C[C@H]1C(=O)N2CCC[C@H]2[C@]2(O)O[C@](NC(=O)[C@@H]3C=C4c5cccc6[nH]c(Br)c(c56)C[C@H]4N(C)C3)(C(C)C)C(=O)N12` [bromocriptine mesylate], where the note is “human”, the “Fold (BLI enhancement, S/B ratio over control)” value was 2.1 fold.
As for `C=C1CC[C@H](O)C/C1=C/C=C1\CCC[C@]2(C)[C@@H]([C@H](C)CCCC(C)(C)O)CC[C@@H]12` [calcifediol], the “Fold (BLI enhancement, S/B ratio over control)” value (human, 40 min, 17 μM) is 3.2 fold.
For the compound `CNc1ccc2oc(C[C@H]3O[C@@]4(CC[C@H]3C)O[C@H]([C@H](C)C(=O)c3ccc[nH]3)[C@H](C)C[C@H]4C)nc2c1C(=O)O` [calcimycin], the “BLI signal enhancement at lower concentrations” value is “enhance BLI signal minimally”.
In the case of `COc1ccccc1OCCNCC(O)COc1cccc2[nH]c3ccccc3c12` (stereo not shown) [carvedilol], the “Fold (BLI enhancement, S/B ratio over control)” value (human, 40 min, 17 μM) was determined as 10.0 fold.
For the compound `CC(C)(O/N=C(\C(=O)N[C@@H]1C(=O)N2C(C(=O)[O-])=C(C[n+]3ccccc3)CS[C@H]12)c1csc(N)n1)C(=O)O` [ceftazidime], the “Fold (BLI enhancement, S/B ratio over control)” value (human, 40 min, 17 μM) is listed as 2.5 fold.
The same measure, in the same setting: the value for `Cc1ccc(-c2cc(C(F)(F)F)nn2-c2ccc(S(N)(=O)=O)cc2)cc1` [celecoxib] was 2.2 fold; that for `COc1ccc2cc1Oc1ccc(cc1)C[C@H]1c3c(cc4c(c3Oc3cc5c(cc3OC)CCN(C)[C@@H]5C2)OCO4)CCN1C` [cepharanthine] was 2.1 fold.
Same read-out and setting: in the case of `Cc1cc(O)cc(C)c1Cl` [chloroxylenol] it was 2.4 fold.
Turning to `O=c1cc(-c2ccccc2)oc2cc(O)cc(O)c12` [chrysin], for the setting “human, 40 min, 17 μM”, the “Fold (BLI enhancement, S/B ratio over control)” value was 2.3 fold and the “fold (BLI enhancement), additional previously known ABCG2 inhibitors” value came out at 2.3 fold.
For the compound `O=C1CCc2cc(OCCCCc3nnnn3C3CCCCC3)ccc2N1` [cilostazol], the “Fold (BLI enhancement, S/B ratio over control)” value (human, 40 min, 17 μM) was determined as 3.8 fold.
Still for that read-out and setting: the value for `C=CC1=C(C(=O)O)N2C(=O)[C@@H](NC(=O)/C(=N\OCC(=O)O)c3csc(N)n3)[C@H]2SC1` [citropen] was 4.3 fold.
Consider `COc1cc(N)c(Cl)cc1C(=O)NC1CCN(Cc2ccccc2)CC1` [clebopride], for which, where the note is “human, 40 min, 17 μM”, the “Fold (BLI enhancement), previously unknown compounds” value came out at 6.7 fold and the “Fold (BLI enhancement, S/B ratio over control)” value is listed as 6.7 fold.
In the case of `CCC(=O)O[C@]1(C(=O)CCl)[C@@H](C)C[C@H]2[C@@H]3CCC4=CC(=O)C=C[C@]4(C)[C@@]3(F)[C@@H](O)C[C@@]21C` [clobetasol propionate], the “Fold (BLI enhancement, S/B ratio over control)” value (human, 40 min, 17 μM) was 3.3 fold.
On to `COc1cc(/C=C/C(=O)CC(=O)/C=C/c2ccc(O)c(OC)c2)ccc1O` [curcumin], for which, for the setting “human, 40 min, 17 μM”, the “Fold (BLI enhancement), known compounds” value amounted to 6.3 fold and the “Fold (BLI enhancement, S/B ratio over control)” value is given as 6.3 fold.
Take `NC1(C(=O)NCC(=O)O)CCCC1` [cycloleucylglycine] (HELM PEPTIDE1{[NC1(C(=O)[*:2])CCCC1].G}$$$$V2.0): the “Fold (BLI enhancement, S/B ratio over control)” value (human, 40 min, 17 μM) came to 2.5 fold.
`CC(=O)[C@@]1(O)CC[C@H]2[C@@H]3C=C(Cl)C4=CC(=O)[C@@H]5C[C@@H]5[C@]4(C)[C@H]3CC[C@@]21C` [cyproterone]: the “Fold (BLI enhancement, S/B ratio over control)” value under setting [1] came to 2.0 fold.
As to `CC(=O)OCC(=O)[C@@]1(O)[C@H](C)C[C@H]2[C@@H]3CCC4=CC(=O)C=C[C@]4(C)[C@@]3(F)[C@@H](O)C[C@@]21C` [dexamethasone acetate], the “Fold (BLI enhancement, S/B ratio over control)” value (human, 40 min, 17 μM) came to 2.2 fold.
With `N#CC(c1ccc(Cl)cc1)c1c(Cl)cc(-n2ncc(=O)[nH]c2=O)cc1Cl` (stereo not shown) [diclazuril], the “Fold (BLI enhancement, S/B ratio over control)” value (human, 40 min, 17 μM) came out at 2.4 fold.
Still for that read-out and setting: in the case of `CCCC(=O)O[C@]1(C(=O)COC(C)=O)CC[C@H]2[C@@H]3C[C@H](F)C4=CC(=O)C=C[C@]4(C)[C@@]3(F)[C@@H](O)C[C@@]21C` [difluprednate] it was 2.0 fold.
Consider `CN1C[C@H](C(=O)N[C@]2(C)O[C@@]3(O)[C@@H]4CCCN4C(=O)[C@H](Cc4ccccc4)N3C2=O)C[C@@H]2c3cccc4[nH]cc(c34)C[C@H]21` [dihydroergotamine mesylate], for which, for the setting “human”, the “Fold (BLI enhancement), previously unknown compounds” value was 9.6 fold and the “Fold (BLI enhancement, S/B ratio over control)” value was found to be 9.6 fold.
Regarding `O=C(Nc1ccccc1)OCC(CN1CCCCC1)OC(=O)Nc1ccccc1` (stereo not shown) [diperodon hydrochloride], the “Fold (BLI enhancement, S/B ratio over control)” value (human, 40 min, 17 μM) is 2.6 fold.
In the case of `OCCN(CCO)c1nc(N2CCCCC2)c2nc(N(CCO)CCO)nc(N3CCCCC3)c2n1` [dipyridamole], under “human, 40 min, 17 μM”, the “Fold (BLI enhancement), known compounds” value is 7.1 fold; the “Fold (BLI enhancement, S/B ratio over control)” value was found to be 7.1 fold; the “fold (BLI enhancement), additional previously known ABCG2 inhibitors” value turned out to be 7.1 fold.
For `CS(=O)(=O)O.O=C(O[C@H]1C[C@H]2CC3C[C@@H](C1)N2CC3=O)c1c[nH]c2ccccc12` [dolasetron mesylate], the “Fold (BLI enhancement, S/B ratio over control)” value turned out to be 3.0 fold.
